Measured values reported in US20150315202A1, “CHLORIN DERIVATIVE USEFUL IN PHOTODYNAMIC THERAPY AND DIAGNOSIS” (RMW CHO GROUP LIMITED, priority 2012, published 2015).
Several values for one entry are separate records, joined by “and”; a condition that tells them apart may be missing. Equal values may be shown once.

Assays:
[1] = system: naso pharyngeal carcinoma with extension to a lymph node in the left neck; experiment: In vivo studies Example 2: patient, oral chlorin e4 sodium plus laser and LED light; set-up: species or system human
Protocol: (§1) A patient with naso pharyngeal carcinoma with extension to a lymph node in the left neck, was treated successfully. The treatment consisted of three courses. For each course, five doses of 62.5-187.5 mg chlorin e4 sodium were administered orally over the course of eight days. 24-48 hours after each oral dose of chlorin e4 sodium, the patient was treated with laser and LED light having a wavelength of 660 nm and 760 nm.
Subsequently the patient was treated with a further course. Again, for the course, five doses of 62.5-187.5 mg chlorin e4 sodium were administered orally over the course of eight days. 24-48 hours after each oral dose of chlorin e4 sodium, the patient was treated with laser and LED light having a wavelength of 660 nm and 760 nm.

[2] = system: lung cancer with metastases in the lymph nodes and sacrum bone; experiment: In vivo studies Example 11: patient, oral chlorin e4 sodium plus laser and LED light; set-up: species or system human
Protocol: A patient with lung cancer with metastases in the lymph nodes and sacrum bone, was treated successfully. […] The treatment consisted of five courses. For each course, five doses of 62.5-187.5 mg chlorin e4 sodium were administered orally over the course of eight days. 24-48 hours after each oral dose of chlorin e4 sodium, the patient was treated with laser and LED light having a wavelength of 660 nm and 760 nm. Additionally, for two of the treatment courses, an interstitial light treatment using a fine needle was performed on the sacrum bone with an optical fibre laser having a wavelength of 660 nm and 760 nm. Additionally, mesothelium bone growth therapy was administered for the last two treatment courses.

[3] = Singlet oxygen phosphorescence at 1270 nm after pulsed laser excitation; type: physicochemical; details: for Decay time of photosensitized singlet oxygen phosphorescence / Rise time of photosensitized singlet oxygen phosphorescence: air saturated
Protocol: Singlet oxygen phosphorescence was detected using measurement of infrared phosphorescence at 1270 nm corresponding to the transition of oxygen molecules from the singlet to the triplet state. Phosphorescence was recorded at room temperature with the laser phosphorescence spectrometer described at A. A. Krasnovsky Jr., Photodynamic action and singlet oxygen, Biofizika, 2004, 49, 305-321; and A. A. Krasnovsky Jr., Singlet oxygen and primary mechanisms of photodynamic therapy and photodynamic diseases, In: Photodynamic therapy at the cellular level, ed. A. B. Uzdensky, Research Singpost, Kerala, India, 2007, 17-62. For excitation, nanosecond pulses of 511 nm radiation from a copper-vapour laser (Troitzk, Physics Institute of the Russian Academy of Science) were employed. Laser radiation passed additionally through a green light filter SZS-22 (4 mm), which transmitted laser light and cut off IR laser radiation caused by heating of the laser tube. Pulse duration was 20 ns, pulse energy varied from 18 to 40 μJ and the pulse repetition rate was 12 kHz. The laser light was collimated on the surface of a 1 cm rectangular quartz cuvette. The diameter of the illuminated spot on the surface of the cell was 5 mm. For kinetic measurements another spectrometer was used without a monochromator. In this case, phosphorescence resulting from the right angle to the excitation beam was focused on the photocathode of a cooled S-1 photomultiplier (FEU-112) through a cut-off IR light filter and an interference filter with the transmission maximum at 1270 nm. The phosphorescence spectra were measured using a MS-80 high throughput grid monochromator. In this case, phosphorescence was focused on the entry slit of this monochromator. The bandwidth of the monochromator corresponded to a 20 nm spectral interval. The monochromatic light was focused on the photocathode of a cooled S-1 photomultiplier (FEU-83). The photomultiplier signal was registered using time-correlated single photon counting and averaged over many laser pulses. In most experiments, one-channel on time was equal to 81 ns. When the pigment bleaching reached 10%, the solution was replaced by a fresh one and measurement was continued. […] Reasonable phosphorescent curves were obtained after 10-20 minutes signal accumulation and therefore samples were changed many times. As described previously (D. A. Butorina, A. A. Krasnovsky Jr. and A. V. Priezzev, Investigation of the kinetic parameters of singlet molecular oxygen in aqueous porphyrin solutions, Influence of detergents and the quencher sodium azide, Biofizika, 2003, 48, 189-196; A. A. Krasnovsky Jr., Luminescence and photochemical studies of singlet oxygen photonics, J. Photochem. Photobiol. A: Chem., 2008, 196, 210-218; and N. Kuznetsova, D. Makarov, O. Yuzhakova, A. Strizhakov, Y. Roumbal, L. Ulanova, A. Krasnovsky and O. Kaliya, Photophysical properties and photodynamic activity of octacationic oxotitanium(IV) phthalocyanines, Photochemical Photobiological Sciences, 2009, 8, 1724-1733), for computer analysis the following two-exponential equation was used: […]
I(t)I0·[exp(−kdecay·t)−exp(−krise·t)]+n
where kdecay and krise are the rate constants of the decay and rise phases of the phosphorescence curves after a laser pulse, n is the off noise of the photomultiplier, I0 is the zero-time phosphorescence intensity, and I(t) is the phosphorescence intensity at time t. To reduce contribution of the luminescence of the pigment in the quartz cuvette, which was observed shortly after laser pulses, readings were taken starting from 400 ns after laser pulses in ethanol and 1 μs in water. In addition, phosphorescence and kinetic traces were measured also from the control chlorin e4 sodium solutions containing high concentration of sodium azide, which completely quenched singlet oxygen. […]

[4] = system: breast cancer in the right breast; experiment: In vivo studies Example 9: patient, oral chlorin e4 sodium plus laser and LED light; set-up: species or system human
Protocol: as §1, with “breast cancer” for “naso pharyngeal carcinoma with extension to a lymph node”, “right breast” for “left neck,”

C=Cc1c(C)c2cc3nc(c(C)c4[nH]c(cc5nc(cc1[nH]2)C(C)=C5CC)c(C)c4C(=O)O)[C@@H](CCC(=O)O)[C@@H]3C [chlorin e4 sodium]
Response (ultrasound images and biopsies) ([1]; after the final (fourth) treatment course): complete response
Biopsy of the treated lymph node of the neck ([1]; immediately following three courses, confirmed ten months after treatment): no cancer cells were detected
Comparison of CT scans ([1]; one month before and ten months after treatment): no spread of tumours and that the size of the tumours was reduced
Patient status ([1]; two years and six months after starting, five months after completion of treatment): alive and well
Patient status ([2]; 10 months after starting, four months after completion of treatment): alive and well
Response (PET/CT) ([2]; five courses, interstitial light on sacrum bone, mesothelium bone growth therapy for last two courses): complete response
Pigment bleaching under laser irradiation ([3]; 511 nm laser pulses, solutions changed after each 60-180 s irradiation): bleached rather rapidly
Decay time of photosensitized singlet oxygen phosphorescence ([3]; Ethanol): 13.5 μs and 13.5 ± 0.3 μs
Rise time of photosensitized singlet oxygen phosphorescence ([3]; Ethanol): 0.3 ± 0.3 μs
Decay time of photosensitized singlet oxygen phosphorescence ([3]; Water + 0.2M SDS): 3.85 ± 0.3 μs
Rise time of photosensitized singlet oxygen phosphorescence ([3]; Water + 0.2M SDS): 1.2 ± 0.3 μs
Decay time of photosensitized singlet oxygen phosphorescence ([3]; Water): 3.3 ± 0.3 μs
Rise time of photosensitized singlet oxygen phosphorescence ([3]; Water): 1.8 ± 0.4 μs
Rise time of singlet oxygen phosphorescence ([3]; ethanol): 300 ns
Singlet oxygen quantum yield ([3]; ethanol, from phosphorescence kinetic curves, reference TPPS): 0.63±0.05
Photosensitizing activity ([3]; water without SDS): lower than in ethanol
Response of the breasts (mammography, ultrasound and PET/CT) ([4]; before and after three courses): complete response
Patient status ([4]; one year and seven months after starting, 10 months after completion of treatment): alive and well
Side effects ([4]; three courses): no side effects
